Measured values reported in PubChem BioAssay AID248 (DTP/NCI, 2004).
Several values for one entry are separate records, joined by “and”; a condition that tells them apart may be missing. Equal values may be shown once. Toxic doses and inconclusive results are not listed. Cut-off read from the data, not from the text of the source: active = T/C of 150% or more; inactive = T/C below 125%.

System: L1210 leukemia ip in BDF1 mice, survival T/C
Assay: NCI In Vivo Anticancer Drug Screen. Data for tumor model L1210 Leukemia (intraperitoneal) in B6D2F1 (BDF1) mice
Details: endpoint: mean survival time, higher = longer survival
Procedure, shortened: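 Read-out is survival time, reported as the treated-group measurement over the vehicle-control measurement.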

[1] = dose: 100.0 mg/kg/injection, schedule: Q01DX009 (ip), vehicle: saline with Tween-80
[2] = dose: 200.0 mg/kg/injection, schedule: Q01DX009 (ip), vehicle: saline with Tween-80
[3] = dose: 400.0 mg/kg/injection, schedule: Q01DX009 (ip), vehicle: saline with Tween-80
[4] = dose: 100.0 mg/kg/injection, schedule: Q04DX003 (ip), vehicle: saline with Tween-80
[5] = dose: 200.0 mg/kg/injection, schedule: Q04DX003 (ip), vehicle: saline with Tween-80
[6] = dose: 400.0 mg/kg/injection, schedule: Q04DX003 (ip), vehicle: saline with Tween-80
[7] = dose: 100.0 mg/kg/injection, schedule: Q01DX001 (ip), vehicle: Klucel (hydroxypropylcellulose) (HPC)
[8] = dose: 200.0 mg/kg/injection, schedule: Q01DX001 (ip), vehicle: Klucel (hydroxypropylcellulose) (HPC)
[9] = dose: 100.0 mg/kg/injection, schedule: Q04DX003 (ip), vehicle: saline
[10] = dose: 200.0 mg/kg/injection, schedule: Q04DX003 (ip), vehicle: saline
[11] = dose: 100.0 mg/kg/injection, schedule: Q01DX001 (ip), vehicle: saline
[12] = dose: 200.0 mg/kg/injection, schedule: Q01DX001 (ip), vehicle: saline
[13] = dose: 400.0 mg/kg/injection, schedule: Q01DX001 (ip), vehicle: saline
[14] = dose: 25.0 mg/kg/injection, schedule: Q01DX009 (ip), vehicle: Klucel (hydroxypropylcellulose) (HPC)
[15] = dose: 100.0 mg/kg/injection, schedule: Q04DX003 (ip), vehicle: Klucel (hydroxypropylcellulose) (HPC)
[16] = dose: 25.0 mg/kg/injection, schedule: Q01DX009 (ip), vehicle: water
[17] = dose: 50.0 mg/kg/injection, schedule: Q01DX009 (ip), vehicle: water
[18] = dose: 100.0 mg/kg/injection, schedule: Q01DX009 (ip), vehicle: Klucel (hydroxypropylcellulose) (HPC)
[19] = dose: 200.0 mg/kg/injection, schedule: Q04DX003 (ip), vehicle: Klucel (hydroxypropylcellulose) (HPC)
[20] = dose: 400.0 mg/kg/injection, schedule: Q04DX003 (ip), vehicle: Klucel (hydroxypropylcellulose) (HPC)

Measured: T/C

CCCCCCCCCCCCCCCC[N+]1(CC)CCCC1
inactive: dose: 25.0 mg/kg/injection, schedule: Q04DX002 (ip), vehicle: saline 96 % of control | dose: 50.0 mg/kg/injection, schedule: Q04DX002 (ip), vehicle: saline 96 % of control

OCCNCc1cccc(-c2ccccc2)c1O
inactive: [1] 93 % of control | [2] 87 % of control | [3] 101 % of control

CCCCN(CC)/N=N/c1nc[nH]c1C(N)=O
inactive: dose: 100.0 mg/kg/injection, schedule: Q01DX001 (ip), vehicle: saline with Tween-80 95 % of control | [1] 117 % of control | [4] 94 % of control | dose: 200.0 mg/kg/injection, schedule: Q01DX001 (ip), vehicle: saline with Tween-80 101 % of control | [2] 124 % of control | [5] 110 % of control | dose: 400.0 mg/kg/injection, schedule: Q01DX001 (ip), vehicle: saline with Tween-80 116 % of control | [3] 88 % of control | [6] 103 % of control

Cc1ccc(S(=O)(=O)OCC(O)C2OCOC3COCOC32)cc1 (stereo not drawn)
inactive: [7] 97 % of control | [8] 101 % of control

Nc1cc[c]([Hg][Cl])cc1
inactive: dose: 1.0 mg/kg/injection, schedule: Q01DX009 (ip), vehicle: Klucel (hydroxypropylcellulose) (HPC) 97 % of control | dose: 1.0 mg/kg/injection, schedule: Q04DX003 (ip), vehicle: saline 102 % of control | dose: 3.0 mg/kg/injection, schedule: Q01DX009 (ip), vehicle: Klucel (hydroxypropylcellulose) (HPC) 112 % of control | dose: 3.0 mg/kg/injection, schedule: Q04DX003 (ip), vehicle: saline 96 % of control | dose: 6.0 mg/kg/injection, schedule: Q01DX009 (ip), vehicle: Klucel (hydroxypropylcellulose) (HPC) 88 % of control | dose: 6.0 mg/kg/injection, schedule: Q04DX003 (ip), vehicle: saline 95 % of control

OC1CCCSC1 (stereo not drawn)
inactive: dose: 100.0 mg/kg/injection, schedule: Q01DX009 (ip), vehicle: saline 102 % of control | [9] 96 % of control | dose: 200.0 mg/kg/injection, schedule: Q01DX009 (ip), vehicle: saline 98 % of control | [10] 100 % of control | dose: 400.0 mg/kg/injection, schedule: Q01DX009 (ip), vehicle: saline 98 % of control | dose: 400.0 mg/kg/injection, schedule: Q04DX003 (ip), vehicle: saline 89 % of control

OCC(O)C(O)C(O)CN=Cc1ccccc1O (stereo not drawn)
inactive: dose: 75.0 mg/kg/injection, schedule: Q04DX002 (ip), vehicle: saline with Tween-80 106 % of control | dose: 150.0 mg/kg/injection, schedule: Q04DX002 (ip), vehicle: saline with Tween-80 98 % of control | dose: 300.0 mg/kg/injection, schedule: Q04DX002 (ip), vehicle: saline with Tween-80 109 % of control

CN(N=O)c1ccccc1
inactive: dose: 50.0 mg/kg/injection, schedule: Q01DX001 (ip), vehicle: saline 93 % of control | [11] 93 % of control | [12] 98 % of control | [13] 102 % of control

CC(=O)Oc1c(OC(C)=O)c(C=O)c2c(OC(C)=O)c(-c3c(C)cc4c(C(C)C)c(OC(C)=O)c(OC(C)=O)c(C=O)c4c3OC(C)=O)c(C)cc2c1C(C)C
inactive: dose: 6.25 mg/kg/injection, schedule: Q01DX009 (ip), vehicle: Klucel (hydroxypropylcellulose) (HPC) 102 % of control | dose: 12.5 mg/kg/injection, schedule: Q01DX009 (ip), vehicle: Klucel (hydroxypropylcellulose) (HPC) 97 % of control | [14] 100 % of control and 105 % of control | dose: 25.0 mg/kg/injection, schedule: Q04DX003 (ip), vehicle: Klucel (hydroxypropylcellulose) (HPC) 93 % of control | dose: 50.0 mg/kg/injection, schedule: Q04DX003 (ip), vehicle: Klucel (hydroxypropylcellulose) (HPC) 90 % of control | [15] 95 % of control and 104 % of control

FC(F)(F)C1=NC(=S)C(c2[nH]c(C(F)(F)F)nc2S)=N1
inactive: [16] 91 % of control | [17] 96 % of control | dose: 100.0 mg/kg/injection, schedule: Q01DX009 (ip), vehicle: water 96 % of control | dose: 200.0 mg/kg/injection, schedule: Q01DX009 (ip), vehicle: water 110 % of control

O=S(=O)(F)/C=C\c1ccccc1
inactive: dose: 25.0 mg/kg/injection, schedule: Q01DX009 (ip), vehicle: acetone 92 % of control | dose: 100.0 mg/kg/injection, schedule: Q01DX001 (ip), vehicle: acetone 95 % of control | dose: 200.0 mg/kg/injection, schedule: Q01DX001 (ip), vehicle: acetone 104 % of control

OC1CNCCc2ccccc21 (stereo not drawn)
inactive: [14] 102 % of control | dose: 50.0 mg/kg/injection, schedule: Q01DX009 (ip), vehicle: Klucel (hydroxypropylcellulose) (HPC) 103 % of control | [18] 94 % of control | [15] 92 % of control | [19] 88 % of control

O=C(Nc1ccc(Cl)c(Cl)c1)OC1C=CS(=O)(=O)C1 (stereo not drawn)
inactive: [15] 104 % of control | [19] 104 % of control | [20] 96 % of control

COc1ccccc1C1(O)c2ccccc2Sc2cccc(OC)c21 (stereo not drawn)
inactive: [4] 104 % of control | [5] 95 % of control | [6] 98 % of control

CCCCCCCCc1ccc(NNC(N)=S)cc1
inactive: dose: 3.12 mg/kg/injection, schedule: Q01DX009 (ip), vehicle: saline 93 % of control | dose: 6.25 mg/kg/injection, schedule: Q01DX009 (ip), vehicle: saline 101 % of control and 92 % of control | dose: 12.5 mg/kg/injection, schedule: Q01DX009 (ip), vehicle: saline 103 % of control | dose: 25.0 mg/kg/injection, schedule: Q01DX009 (ip), vehicle: saline 100 % of control

O=C(c1cccc([N+](=O)[O-])c1)c1cccc([N+](=O)[O-])c1
inactive: [7] 117 % of control | [8] 97 % of control | dose: 400.0 mg/kg/injection, schedule: Q01DX001 (ip), vehicle: Klucel (hydroxypropylcellulose) (HPC) 94 % of control

Cc1ncc(C#N)c(C)n1
inactive: [11] 107 % of control | [12] 102 % of control | [13] 107 % of control

C[CH2][Hg][I]
inactive: dose: 25.0 mg/kg/injection, schedule: Q04DX002 (ip), vehicle: saline with Tween-80 95 % of control | dose: 50.0 mg/kg/injection, schedule: Q04DX002 (ip), vehicle: saline with Tween-80 97 % of control

COc1cc(C(=O)OCCN(C(C)C)C(C)C)cc(OC)c1OC
inactive: [9] 101 % of control | [10] 95 % of control

Cc1nnc2sc(C(=O)O)nn12
inactive: [11] 90 % of control | [12] 93 % of control | [13] 96 % of control

O=C(O)c1ccccc1C(=O)Nc1ccc([N+](=O)[O-])cc1
inactive: dose: 25.0 mg/kg/injection, schedule: Q04DX003 (ip), vehicle: saline with Tween-80 93 % of control | dose: 50.0 mg/kg/injection, schedule: Q04DX003 (ip), vehicle: saline with Tween-80 90 % of control | [4] 98 % of control

CSc1nc(N(C)C)c2[nH]c(C)nc2n1
inactive: [11] 87 % of control | [12] 101 % of control

c1ccc(Cn2ccnc2)cc1
inactive: dose: 3.12 mg/kg/injection, schedule: Q01DX009 (ip), vehicle: water 106 % of control | dose: 6.25 mg/kg/injection, schedule: Q01DX009 (ip), vehicle: water 117 % of control | dose: 12.5 mg/kg/injection, schedule: Q01DX009 (ip), vehicle: water 107 % of control | [16] 104 % of control and 108 % of control | [17] 96 % of control | dose: 75.0 mg/kg/injection, schedule: Q01DX001 (ip), vehicle: saline 103 % of control

CCOc1ccc(NC(=S)NC2CCCCC2)cc1
inactive: [18] 106 % of control | dose: 200.0 mg/kg/injection, schedule: Q01DX009 (ip), vehicle: Klucel (hydroxypropylcellulose) (HPC) 95 % of control | dose: 400.0 mg/kg/injection, schedule: Q01DX009 (ip), vehicle: Klucel (hydroxypropylcellulose) (HPC) 96 % of control

CSc1nc(SC)c(Cl)c(C(Cl)Cl)n1
inactive: [15] 98 % of control | [19] 94 % of control | [20] 102 % of control
